Experimental data: patent US10017507B2, “Diaza-benzofluoranthrene compounds” (HARBIN PHARMACEUTICAL GROUP CO., LTD. GENERAL …, priority 2015, dated 2018)

How the values were obtained:
[1] = molecular target: T1, PDE1A (Homo sapiens, UniProt P54750); test: In vitro detection of phosphodiesterase (PDE): PDE1A enzyme activity by fluorescence polarization immunoassay; assay type: biochemical; conditions: human-derived enzyme, cAMP or cGMP substrate; read-out: IC50s for PDE1
T1 construct: purchased SignalChem
Method in brief: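 Human PDE1A (enzyme solution 3 pM) was preincubated 10 min at RT with compound in 10 mM Tris-HCl pH 7.5, 5 mM MgCl2, 0.01% Brij 35, 1 mM DTT, 1% DMSO, with Ca2+-calmodulin cofactor. Reaction ran 1 h at RT on […] cAMP or cGMP, then 90 min with antibody/tracer. FP at Ex/Em 620/688 was converted to AMP/GMP via standard curve to give IC50.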

[2] = Comparison of pharmacokinetics in Beagle dogs; assay type: in vivo
Protocol: Test 2: Comparison of Pharmacokinetics in Beagle Dogs
In this study, male Beagle dogs were given the compounds of the examples and vinpocetine (as a control compound) by intravenous injection or oral administration, respectively, then the drug concentration in plasma at different time points was determined by the LC/MS/MS method, so as to investigate the pharmacokinetic characteristics of the two test drugs in Beagle dogs.
Eight healthy adult Beagle dogs with a weight of 7.0 to 10.83 kg (purchased from Beijing Marshall Biotechnology Co., Ltd.) were selected. The formulation for intravenous injection group was DMSO: PEG400: water=5:20:75. A solvent was added to the test compound which had been accurately weighed, after vortex oscillation and ultrasound, a clear solution with a final concentration of 1.0 mg/mL was obtained. The solution was filtered with a filter membrane of 0.22 μm and stored at room temperature for use. The formulation for oral administration group was PEG 400: Tween 80: H2O=40:10:50. A solvent was added to the test compound which had been accurately weighed, after vortex oscillation and ultrasound, a clear solution with a final concentration of 1.5 mg/mL was obtained. The formulations for both the intravenous injection and the oral administration were formulated on the day of administration. The intravenous dose was 1.0 mg/kg, and the oral dose was 3.0 mg/kg. The whole blood for each test compound was respectively taken at 0.083 (for intravenous injection only), 0.25, 0.5, 1, 2, 4, 6, 8 and 24 hours after administration. The whole blood was centrifuged (3000 g, 15 min, 4° C.) to obtain the plasma. The drug concentration in each plasma sample was determined by LC/MS/MS method. The data about drug concentration in plasma was processed by WinNonlin™ Version 6.3 (Pharsight, Mountain View, Calif.) software, using a non-compartmental model, and the pharmacokinetic parameters were calculated by using the linear-logarithmic trapezoidal method.

[3] = test system: pentylenetetrazole-kindling model of epilepsy; test: Inhibition effect on pentylenetetrazole-kindling model of epilepsy in cynomolgus monkey; assay type: in vivo; conditions: 10 mg/kg
Excerpt: Test 3: Inhibition Effect on Pentylenetetrazole-Kindling Model of Epilepsy in Cynomolgus Monkey In this test, six male cynomolgus monkeys were selected, and each monkey was intragastrically administrated by nasal feeding. Besides pentylenetetrazole which was administrated by subcutaneous injection, the compound of Example 29 and carbamazepine were consecutively administered for 8 days, respectively. The monkeys were respectively given a solvent prior to the first administration, and were injected subcutaneously with pentylenetetrazole immediately after the last administration. The administration interval between two tests was about 10 days. Pentylenetetrazine was administered once to induce epilepsy prior to the first administration of the compound of Example 29. The dosage was calculated according to the latest weight of the animal, and the date of first administration was designated as Day 1. Surgical procedure: the animals were fed adaptively for at least one week in feeding facilities, and then they were anesthetized during preoperative preparation according to the company standards. The main operation procedures were as follows: cutting the head skin, fully exposing the skull, stripping the periosteum, and cleaning the skull surface with a dry absorbent cotton; drilling 2 holes on the skull of the cynomolgus monkey with cranial drill, implanting a brain electrode, and fixing it with dental cement; then burying two myoelectric electrodes into the neck muscles of the cynomolgus monkey, and burying eye-electric electrodes into the bilateral eye muscles, fixing the implant body in the abdominal muscle layer. Postoperative care was performed according to the company standards. The raw data was collected by Ponemah of DSI system, and analyzed and revised by Neuronscore. The data was shown by mean±standard error (Mean±SEM), statistical analysis was performed by t-test and ANOVA. P<0.05 indicated a significant difference, P<0.01 indicated a very significant difference, P<0.001 indicated an extremely significant difference. The characteristics of electroencephalic response and electroencephalic energy for pentylenetetrazole-kindling epilepsy were observed and analyzed, and then a comparison was made between Example 29 and carbamazepine in terms of the latency for the onset of epilepsy seizure, and the times and lasting time of clonic convulsions and tonic convulsions in cynomolgus monkey pentylenetetrazole-kindling model, so as to compare the pharmacodynamic inhibitory effect of Example 29 and carbamazepine on cynomolgus monkey pentylenetetrazole-kindling model. After the cynomolgus monkeys were injected subcutaneously with 40 mg/kg pentylenetetole on the back and were induced epilepsy-like behaviors, the electroencephalic response, electromyogrphic response and locomotor activity were detected by DSI wireless remote sensing signal recording system. […] The behaviors were divided into paroxysmal activity, clonic convulsion and tonic convulsions according to the status of epilepsy. The changes of electroencephalic energy within 4-24 Hz were statistically analyzed when cynomolgus monkeys suffered epileptic seizure within 24 hours after injection of pentylenetetrazole.

[4] = within 24 hours, versus Vehicle group

IC50 [1]: 1 to 20 µM
area under the concentration-time curve (0-inf) ([2]; intravenous injection 1 mg/kg): 4.04 µM·h
clearance ([2]; male, dog, plasma, intravenous injection 1 mg/kg): 12 mL/min/kg
half-life ([2]; male, dog, plasma, intravenous injection 1 mg/kg, read-out: Half-life period (converted)): 565 min
bioavailability ([2]; male, dog, plasma, oral administration 3 mg/kg): 37.5%
Peak concentration ([2]; oral administration 3 mg/kg): 1299 nM
Time to Peak ([2]; oral administration 3 mg/kg): 1.0 h
area under the concentration-time curve (0-inf) ([2]; oral administration 3 mg/kg): 4.545 µM·h
half-life longer than that of vinpocetine ([2]; relative to vinpocetine): 56%
plasma clearance lower than that of vinpocetine ([2]; relative to vinpocetine): about 85%
Structure (SMILES): CC[C@@]12C=C(c3nc(C)no3)n3c4c(c5ccccc53)CCN(CCC1)[C@H]42 [Example 29, 5-((4^1S,13aS)-13a-ethyl-2,3,4^1,5,6,13a-hexahydro-1H-indolo[3,2,1-de]pyrido[3,2,1-ij][1,5]naphthyridin-12-yl)-3-methyl-1,2,4-oxadiazole]
latency prolonged than the Vehicle group ([3]; 8 days, versus Vehicle group): 39.24 min
latency, relative increase versus Vehicle group ([3]; 8 days, versus Vehicle group): 160%
latency prolonged than the carbamazepine group ([3]; 8 days, versus carbamazepine group): 18.9 min
latency for the onset of epilepsy seizure ([3]; continuous administration of 8 days, pentylenetetrazole 40 mg/kg s.c., Mean±SEM): 64.10 ± 13.21 min
lasting time of clonic convulsions and tonic convulsions ([3]; pentylenetetrazole-kindled, Mean±SEM): 2.61 ± 0.99 min
lasting time of convulsions shortened compared with the Vehicle Group ([3]; versus Vehicle group): 9.07 min
lasting time of convulsions, relative reduction versus Vehicle Group ([3]; versus Vehicle group): 78%
lasting time of convulsions shortened compared with the carbamazepine group ([3]; versus carbamazepine group): about 2.1 min
times of clonic convulsion and tonic convulsion ([3]; within 24 hours after pentylenetetrazol, Mean±SEM): 25.7±7.07
times of clonic and tonic convulsion reduced compared with the Vehicle Group [3, 4]: about 82 times
times of clonic and tonic convulsion, relative reduction versus Vehicle Group [3, 4]: 76%
times of clonic and tonic convulsion reduced compared with the carbamazepine group ([3]; within 24 hours, versus carbamazepine group): about 14 times
